The results in this text go back to patent US9353051B2, “Antiviral drugs for treatment or prevention of dengue infection” (Siga Technologies Inc., priority 2007, dated 2016).

Where only a bound is given, the exact number is not on record here.

The test deals with Dengue-2 (Strain New Guinea C). As to the kind of experiment: viral yield assay against Dengue-2 in Vero cells. Conditions: Dengue virus; Vero cells, MOI 0.1, harvested 48 hours post infection; read-out: Activity (anti-dengue 2 viral activity, EC50). The test is classed as cell-based. As for the experimental part: Compounds that were active in the primary screen were also tested for activity in viral yield assays. […] Vero cells in 12-well plates were infected with dengue-2 virus at a multiplicity of infection (MOI) of 0.1, treated with compound (or DMSO as a control), incubated at 37° C., harvested 48 hours post infection and titered on Vero cells as described above. The EC50 was calculated through ExcelFit. Those compounds with activity below 1 μM are indicated with “A”, those with activity between 1 and 10 μM are indicated with “B”, those with activity between 10 and 25 μM with “C”, and those with activity above 25 μM are indicated with “D”.
Consider `CCN(CC)S(=O)(=O)c1ccc(C(C)NC(=O)CCn2nnc3ccccc3c2=O)cc1` (stereo not drawn) [Compound 68, N-[1-(4-Diethylsulfamoyl-phenyl)-ethyl]-3-(4-oxo-4H-benzo[d][1,2,3]triazin-3-yl)-propionamide], for which the EC50 – broadly, the concentration giving half of the maximal effect – is over 25 µM.

Turning to `CCN(CC)S(=O)(=O)c1ccc(CNC(=O)Cn2cnc3ccccc3c2=O)cc1` [Compound 69, N-(4-Diethylsulfamoyl-benzyl)-2-(4-oxo-4H-quinazolin-3-yl)-acetamide], the EC50 was over 25 µM.

Turning to `CCN(CC)S(=O)(=O)c1ccc(NC(=O)CNC(=O)c2cccc(S(=O)(=O)N(C)C)c2)cc1` [Compound 70, N-[(4-Diethylsulfamoyl-phenylcarbamoyl)-methyl]-3-dimethylsulfamoyl-benzamide], the EC50 is over 25 µM.

`CCN(CC)S(=O)(=O)c1ccc(NC(=O)CSc2nc3ccccc3c(=O)n2C)cc1` [Compound 71, N-(4-Diethylsulfamoyl-phenyl)-2-(3-methyl-4-oxo-3,4-dihydro-quinazolin-2-ylsulfanyl)-acetamide]: the EC50 was over 25 µM.

As to `CCN(CC)S(=O)(=O)c1ccc(NC(=O)CNC(=O)c2ccc(C)cc2)cc1` [Compound 72, N-[(4-Diethylsulfamoyl-phenylcarbamoyl)-methyl]-4-methyl-benzamide], the EC50 was over 25 µM.

With `CCN(CC)S(=O)(=O)c1ccc(NC(=O)CNC(=O)c2ccc(S(=O)(=O)NC(C)C)cc2)cc1` [Compound 73, N-[(4-Diethylsulfamoyl-phenylcarbamoyl)-methyl]-4-isopropylsulfamoyl-benzamide], the EC50 is over 25 µM.

With `CCN(CC)S(=O)(=O)c1ccc(NC(=O)CNC(=O)c2ccc3ccccc3c2)cc1` [Compound 74, Naphthalene-2-carboxylic acid[(4-diethylsulfamoyl-phenylcarbamoyl)-methyl]-amide], the EC50 is over 25 µM.

On to `CCN(CC(=O)Nc1ccc(S(=O)(=O)N(CC)CC)cc1)Cc1nc2cc(Cl)ccc2c(=O)[nH]1` [Compound 75, 2-[(7-Chloro-4-oxo-3,4-dihydro-quinazolin-2-ylmethyl)-ethyl-amino]-N-(4-diethylsulfamoyl-phenyl)-acetamide], for which the EC50 is over 25 µM.

Regarding `CCN(CC)C(=O)c1ccc(NCC(=O)Nc2ccc(S(=O)(=O)N(CC)CC)cc2)cc1` [Compound 76, 4-{[(4-Diethylsulfamoyl-phenylcarbamoyl)-methyl]-amino}-N,N-diethyl-benzamide], the EC50 is over 25 µM.

Turning to `CCN(CC)S(=O)(=O)c1ccc(NC(=O)CCn2nnc3ccccc3c2=O)cc1` [Compound 77, N-(4-Diethylsulfamoyl-phenyl)-3-(4-oxo-4H-benzo[d][1,2,3]triazin-3-yl)-propionamide], the EC50 was over 25 µM.

Turning to `CCN(CC)S(=O)(=O)c1ccc(NC(=O)Cn2c(=O)n(CC)c(=O)c3ccccc32)cc1` [Compound 78, N-(4-Diethylsulfamoyl-phenyl)-2-(3-ethyl-2,4-dioxo-3,4-dihydro-2H-quinazolin-1-yl)-acetamide], the EC50 was over 25 µM.

Turning to `CCN(CC)S(=O)(=O)c1ccc(NC(=O)CNC(=O)c2ccc(OC)c(OC)c2)cc1` [Compound 79, N-[(4-Diethylsulfamoyl-phenylcarbamoyl)-methyl]-3,4-dimethoxy-benzamide], the EC50 is over 25 µM.

For the compound `CCN(CC)S(=O)(=O)c1ccc(NC(=O)CNC(=O)c2ccc(-c3ccccc3)cc2)cc1` [Compound 80, Biphenyl-4-carboxylic acid [(4-diethylsulfamoyl-phenylcarbamoyl)-methyl]-amide], the EC50 was over 25 µM.

With `CCN(CC)S(=O)(=O)c1ccc(NC(=O)COC(=O)Cn2nnc3ccccc3c2=O)cc1` [Compound 81, (4-Oxo-4H-benzo[d][1,2,3]triazin-3-yl)-acetic acid (4-diethylsulfamoyl-phenylcarbamoyl)-methyl ester], the EC50 was over 25 µM.

Take `O=C(Cn1nnc2ccccc2c1=O)Nc1ccc(S(=O)(=O)N2CCOCC2)cc1` [Compound 82, N-[4-(Morpholine-4-sulfonyl)-phenyl]-2-(4-oxo-4H-benzo[d][1,2,3]triazin-3-yl)-acetamide]: the EC50 was over 25 µM.

Regarding `CC(NS(=O)(=O)c1ccc(NC(=O)Cn2nnc3ccccc3c2=O)cc1)C1CC2CCC1C2` (stereo not drawn) [Compound 83, N-[4-(1-Bicyclo[2.2.1]hept-2-yl-ethylsulfamoyl)-phenyl]-2-(4-oxo-4H-benzo[d][1,2,3]triazin-3-yl)-acetamide], the EC50 was over 25 µM.

For the compound `CON(C)S(=O)(=O)c1ccc(NC(=O)Cn2nnc3ccccc3c2=O)cc1` [Compound 84, N-[4-(Methoxy-methyl-sulfamoyl)-phenyl]-2-(4-oxo-4H-benzo[d][1,2,3]triazin-3-yl)-acetamide], the EC50 was over 25 µM.

On to `CN(C)S(=O)(=O)c1ccc(NC(=O)Cn2nnc3ccccc3c2=O)cc1` [Compound 85, N-(4-Dimethylsulfamoyl-phenyl)-2-(4-oxo-4H-benzo[d][1,2,3]triazin-3-yl)-acetamide], for which the EC50 is over 25 µM.

With `CC(C)N(C)S(=O)(=O)c1ccc(NC(=O)Cn2nnc3ccccc3c2=O)cc1` [Compound 86, N-[4-(Isopropyl-methyl-sulfamoyl)-phenyl]-2-(4-oxo-4H-benzo[d][1,2,3]triazin-3-yl)-acetamide], the EC50 is over 25 µM.

Regarding `O=C(Cn1nnc2ccccc2c1=O)Nc1ccc(S(=O)(=O)N2CCCCC2)cc1` [Compound 87, 2-(4-Oxo-4H-benzo[d][1,2,3]triazin-3-yl)-N-[4-(piperidine-1-sulfonyl)-phenyl]-acetamide], the EC50 was over 25 µM.

As to `CCN(CC)S(=O)(=O)c1ccc(N(C)C)c(NC(=O)Cn2cnc3ccccc3c2=O)c1` [Compound 88, N-(5-Diethylsulfamoyl-2-dimethylamino-phenyl)-2-(4-oxo-4H-quinazolin-3-yl)-acetamide], the EC50 was over 25 µM.

Consider `CCN(CC)S(=O)(=O)c1ccc(C)c(NC(=O)Cn2cnc3ccccc3c2=O)c1` [Compound 89, N-(5-Diethylsulfamoyl-2-methyl-phenyl)-2-(4-oxo-4H-quinazolin-3-yl)-acetamide], for which the EC50 is over 25 µM.

Regarding `CCN(CC)S(=O)(=O)c1cc(C)c(C)c(NC(=O)Cn2cnc3ccccc3c2=O)c1` [Compound 90, N-(5-Diethylsulfamoyl-2,3-dimethyl-phenyl)-2-(4-oxo-4H-quinazolin-3-yl)-acetamide], the EC50 is over 25 µM.

Turning to `CCN(CC)S(=O)(=O)c1ccc(OC)c(NC(=O)Cn2cnc3ccccc3c2=O)c1` [Compound 91, N-(5-Diethylsulfamoyl-2-methoxy-phenyl)-2-(4-oxo-4H-quinazolin-3-yl)-acetamide], the EC50 is over 25 µM.

Take `CCOc1ccc(S(=O)(=O)N(CC)CC)cc1NC(=O)Cn1cnc2ccccc2c1=O` [Compound 92, N-(5-Diethylsulfamoyl-2-ethoxy-phenyl)-2-(4-oxo-4H-quinazolin-3-yl)-acetamide]: the EC50 was over 25 µM.

`CCN(CC)S(=O)(=O)c1ccc(Cl)c(NC(=O)Cn2cnc3ccccc3c2=O)c1` [Compound 93, N-(2-Chloro-5-diethylsulfamoyl-phenyl)-2-(4-oxo-4H-quinazolin-3-yl)-acetamide]: the EC50 was over 25 µM.

As to `CCN(CC)S(=O)(=O)c1ccc(O)c(NC(=O)Cn2nnc3ccccc3c2=O)c1` [Compound 94, N-(5-Diethylsulfamoyl-2-hydroxy-phenyl)-2-(4-oxo-4H-benzo[d][1,2,3]triazin-3-yl)-acetamide], the EC50 was over 25 µM.

Take `CCN(CC)S(=O)(=O)c1ccc(C)c(NC(=O)Cn2nnc3ccccc3c2=O)c1` [Compound 95, N-(5-Diethylsulfamoyl-2-methyl-phenyl)-2-(4-oxo-4H-benzo[d][1,2,3]triazin-3-yl)-acetamide]: the EC50 is over 25 µM.

On to `CCN(CC)S(=O)(=O)c1ccc2c(c1)CCN2Cc1nc2ccccc2c(=O)n1C` [Compound 96, 1-(3-Methyl-4-oxo-3,4-dihydro-quinazolin-2-ylmethyl)-2,3-dihydro-1H-indole-5-sulfonic acid diethylamide], for which the EC50 is over 25 µM.

Consider `CCN(CC)S(=O)(=O)c1ccc2c(c1)CCCN2C(=O)Cn1cnc2c(C)cccc2c1=O` [Compound 97, 1-[2-(8-Methyl-4-oxo-4H-quinazolin-3-yl)-acetyl]-1,2,3,4-tetrahydro-quinoline-6-sulfonic acid diethylamide], for which the EC50 was over 25 µM.

`CN(Cc1ccccc1)S(=O)(=O)c1ccc(NC(=O)CCn2cnc3ccccc3c2=O)cc1` [Compound 98, N-[4-(Benzyl-methyl-sulfamoyl)-phenyl]-3-(4-oxo-4H-quinazolin-3-yl)-propionamide]: the EC50 was over 25 µM.

With `Cc1ccc(S(=O)(=O)Nc2ccc3ncn(Cc4ccccc4)c(=O)c3c2)cc1` [Compound 99, N-(3-Benzyl-4-oxo-3,4-dihydro-quinazolin-6-yl)-4-methyl-benzenesulfonamide], the EC50 is over 25 µM.

As to `Cc1nn(CC(=O)Nc2ccc(S(N)(=O)=O)cc2)c(=O)c2ccccc12` [Compound 100, 2-(4-Methyl-1-oxo-1H-phthalazin-2-yl)-N-(4-sulfamoyl-phenyl)-acetamide], the EC50 was over 25 µM.

On to `CCn1c(=O)c2ccccc2n(CC(=O)NCCc2ccc(S(N)(=O)=O)cc2)c1=O` [Compound 101, 2-(3-Ethyl-2,4-dioxo-3,4-dihydro-2H-quinazolin-1-yl)-N-[2-(4-sulfamoyl-phenyl)-ethyl]-acetamide], for which the EC50 was over 25 µM.

Regarding `Cn1c(=O)c2ccccc2n(CC(=O)NCCc2ccc(S(N)(=O)=O)cc2)c1=O` [Compound 102, 2-(3-Methyl-2,4-dioxo-3,4-dihydro-2H-quinazolin-1-yl)-N-[2-(4-sulfamoyl-phenyl)-ethyl]-acetamide], the EC50 is over 25 µM.

For `CC(=O)NCCc1ccc(S(=O)(=O)Nc2ccc3ncn(C)c(=O)c3c2)cc1` [Compound 103, N-{2-[4-(3-Methyl-4-oxo-3,4-dihydro-quinazolin-6-ylsulfamoyl)-phenyl]-ethyl}-acetamide], the EC50 is over 25 µM.
